Experimental data taken from PMC5164969 (Bioorganic & medicinal chemistry, 2016).
Values after ≈ are worked out from the molar mass of the structure shown.

Columns and labels:
[1] = system: VRE; type: cell-based, enterococcus; details: strain D (VRE), 15 serial passages
[2] = system: MRSA; type: cell-based, Staphylococcus aureus; details: strain C (MRSA), 15 serial passages
[3] = system: K. pneumoniae ATCC 27736; experiment: Antibacterial MIC; type: cell-based; details: Klebsiella pneumoniae, ATCC27736
[4] = system: methicillin-resistant Staphylococcus aureus (MRSA); experiment: Antibacterial MIC; type: cell-based
[5] = system: L. monocytogenes ATCC 19115; type: cell-based, Listeria monocytogenes; details: strain B (Lmo), 15 serial passages
[6] = system: L. monocytogenes ATCC 19115; experiment: Antibacterial MIC; type: cell-based; details: Listeria monocytogenes, ATCC19115
[7] = system: E. coli MC1061; experiment: Antibacterial MIC; type: cell-based; details: Escherichia coli
[8] = system: panel of Gram-positive, Gram-negative and mycobacterial strains; experiment: Antibacterial MIC, summary over the panel of bacterial strains; type: cell-based; details: all bacterial strains tested
[9] = system: P. aeruginosa ATCC 27853; type: cell-based; details: strain I (Pae); for development of resistance (passage after which resistance developed): 15 serial passages
[10] = system: C. albicans ATCC 90819; experiment: Antifungal MIC; type: cell-based; details: Candida albicans, ATCC90819
[11] = system: C. albicans ATCC 64124; experiment: Antifungal MIC; type: cell-based; details: Candida albicans, ATCC64124
[12] = Mammalian cell cytotoxicity, summary over both cell lines; type: cell-based; details: human, A549 cells and BEAS-2B cells
[13] = system: B. subtilis 168; experiment: Antibacterial MIC; type: cell-based; details: Bacillus subtilis
[14] = system: C. albicans ATCC 10231; type: cell-based, Candida albicans; details: C. albicans ATCC 10231, repeated treatments with sub-MIC drug concentrations
[15] = system: E. cloacae ATCC 13047; experiment: Antibacterial MIC; type: cell-based; details: Enterobacter cloacae, ATCC13047
[16] = system: C. albicans ATCC 10231; experiment: Intracellular ROS production, DCFH-DA fluorescence assay; type: cell-based, Candida albicans; details: 1 h at 35 °C, DCFH-DA staining
[17] = target: hERG channel (Homo sapiens, UniProt Q12809); type: binding; details: class by IC50
[18] = system: P. aeruginosa ATCC 27853; experiment: Antibacterial MIC; type: cell-based; details: Pseudomonas aeruginosa, ATCC27853
[19] = system: vancomycin-resistant enterococcus (VRE); experiment: Antibacterial MIC; type: cell-based
[20] = system: seven Candida albicans strains; experiment: Antifungal MIC, summary over the panel of seven strains; type: cell-based; details: most of the fungal strains tested / overall

Chain of hERG channel (Q12809 whole entry): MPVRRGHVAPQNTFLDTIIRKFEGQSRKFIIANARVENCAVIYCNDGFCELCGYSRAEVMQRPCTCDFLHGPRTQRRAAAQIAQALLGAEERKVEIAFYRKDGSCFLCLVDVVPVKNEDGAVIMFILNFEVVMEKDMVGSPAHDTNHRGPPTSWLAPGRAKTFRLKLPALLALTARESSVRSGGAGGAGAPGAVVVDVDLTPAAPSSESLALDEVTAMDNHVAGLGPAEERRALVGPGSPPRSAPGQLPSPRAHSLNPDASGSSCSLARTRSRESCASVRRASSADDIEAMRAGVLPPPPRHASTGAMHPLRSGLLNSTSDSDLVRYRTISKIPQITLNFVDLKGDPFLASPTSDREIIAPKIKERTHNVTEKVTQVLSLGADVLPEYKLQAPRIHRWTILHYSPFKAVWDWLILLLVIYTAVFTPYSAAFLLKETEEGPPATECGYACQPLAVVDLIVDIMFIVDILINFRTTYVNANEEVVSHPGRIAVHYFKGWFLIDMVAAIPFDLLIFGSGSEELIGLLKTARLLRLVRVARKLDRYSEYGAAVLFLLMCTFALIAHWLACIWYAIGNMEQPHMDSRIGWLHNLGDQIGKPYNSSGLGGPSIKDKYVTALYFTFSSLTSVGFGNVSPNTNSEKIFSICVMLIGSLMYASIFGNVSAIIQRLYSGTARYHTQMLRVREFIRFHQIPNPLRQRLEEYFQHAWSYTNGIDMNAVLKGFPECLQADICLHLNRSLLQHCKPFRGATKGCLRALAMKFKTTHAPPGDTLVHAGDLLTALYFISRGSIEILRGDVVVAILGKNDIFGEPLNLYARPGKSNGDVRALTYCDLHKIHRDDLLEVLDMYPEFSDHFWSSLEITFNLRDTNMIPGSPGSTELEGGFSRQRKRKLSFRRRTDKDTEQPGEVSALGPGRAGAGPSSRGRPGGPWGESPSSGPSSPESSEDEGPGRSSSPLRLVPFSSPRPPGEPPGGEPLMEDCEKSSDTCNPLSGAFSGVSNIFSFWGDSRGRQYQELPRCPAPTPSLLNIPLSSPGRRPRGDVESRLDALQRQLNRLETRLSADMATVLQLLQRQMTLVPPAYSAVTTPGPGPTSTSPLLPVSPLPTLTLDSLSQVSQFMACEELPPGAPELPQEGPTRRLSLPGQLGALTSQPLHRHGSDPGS

With NCC[C@H](O)C(=O)N[C@@H]1C[C@H](N)[C@@H](O[C@H]2O[C@H](CN)[C@@H](O)[C@H](O)[C@H]2O)[C@H](O)[C@H]1O[C@H]1O[C@H](CO)[C@@H](O)[C@H](N)[C@H]1O [AMK, amikacin, reference compound] the “development of resistance (passage after which resistance developed)” value (“development of resistance” below) [1] was 3 passages, the “development of resistance” value [2] was 12 passages and the MIC [3] was 24.5 µg/mL (≈ 41.8 µM). For the same compound, the MIC [4] was 24.5 µg/mL (≈ 41.8 µM), the “development of resistance” value [5] was 15 passages and the MIC [6] was 3 µg/mL (≈ 5.12 µM). For the same compound, the MIC [7] was 24.5 µg/mL (≈ 41.8 µM), the “MIC, range over bacterial strains tested” value [8] was 3.9 to 125 µM and the “development of resistance” value [9] was 5 passages.

In the case of CC1(C)S[C@@H]2[C@H](NC(=O)[C@H](N)c3ccccc3)C(=O)N2[C@H]1C(=O)O [AMP, ampicillin, reference compound], the MIC [7] is reported as greater than 92.8 µg/mL and the “MIC, range over bacterial strains tested” value [8] is reported as no less than 250 µM.

Compound C[C@@H]1[C@H](O)[C@@H](C)/C=C/C=C/C=C/C=C/C=C/C=C/C=C/[C@H](O[C@@H]2O[C@H](C)[C@@H](O)[C@H](N)[C@@H]2O)C[C@@H]2O[C@](O)(C[C@@H](O)C[C@@H](O)[C@H](O)CC[C@@H](O)C[C@@H](O)CC(=O)O[C@H]1C)C[C@H](O)[C@H]2C(=O)O [AmB, amphotericin B] has an MIC [10] of 2 µg/mL (≈ 2.16 µM) and an MIC [11] of 2 to 3.9 µg/mL (≈ 2.16 to 4.22 µM).

Cl.Cl.N=C(N)N/N=C/c1ccc(-c2ccc(/C=N/NC(=N)N)cc2)cc1 [Compound 3A] showed an MIC [7] greater than 198 µg/mL.

With Cl.Cl.N=C(N)N/N=C/c1ccc(-c2cccc(/C=N/NC(=N)N)c2)cc1 [Compound 3B] the IC50 [12] was 4.4 to 13.9 µg/mL and the MIC [7] was greater than 198 µg/mL.

C/C(=N\NC(=N)N)c1ccc(-c2ccc(/C(C)=N/NC(=N)N)cc2)cc1.Cl.Cl [Compound 4A] showed an MIC [7] of 26.5 µg/mL.

C/C(=N\NC(=N)N)c1ccc(Cc2ccc(/C(C)=N/NC(=N)N)cc2)cc1.Cl.Cl [Compound 4C] gave an MIC [7] greater than 219 µg/mL.

For C/C(=N\NC(=N)N)c1ccc(CCc2ccc(/C(C)=N/NC(=N)N)cc2)cc1.Cl.Cl [Compound 4D], the MIC [7] was greater than 226 µg/mL and the “increase in MIC values” ([9]; after 15 serial passages at sub-inhibitory concentrations) was 4 fold.

C/C(=N\NC(=N)N)c1ccc(Oc2ccc(/C(C)=N/NC(=N)N)cc2)cc1.Cl.Cl [Compound 4E] gave an MIC [13] of 54.9 µg/mL, an MIC [4] of 54.9 µg/mL and an MIC [7] of 54.9 µg/mL.

In the case of C/C(=N\NC(=N)N)c1ccc2c(c1)Cc1cc(/C(C)=N/NC(=N)N)ccc1-2.Cl.Cl [Compound 4F], the “development of resistance” value [1] is reported as “did not develop resistance”, the “development of resistance” value [2] is reported as “did not develop resistance” and the “development of drug resistance” value [14] is reported as “did not to develop drug resistance”. For the same compound, the MIC [15] was 218 µg/mL, the “development of resistance” value [5] was “did not develop resistance” and the MIC [7] was 218 µg/mL. The “intracellular ROS production” value ([16]; 1× and 2× MIC) was “increased intracellular ROS production”, the “development of resistance” value [9] was “did not develop resistance” and the “affinity for / interaction with hERG (class)” value (shortened to “affinity for / interaction”) [17] was “moderate (IC50 values in the range of 1-10 μM are considered to have moderate affinity)”.

C/C(=N\NC(=N)N)c1ccc(/C(C)=N/NC(=N)N)cc1.Cl.Cl [Compound 4G] showed an MIC [7] greater than 173 µg/mL.

With C/C(=N\NC(=N)N)c1cccc(/C(C)=N/NC(=N)N)c1.Cl.Cl [Compound 4H] the MIC [7] was greater than 173 µg/mL.

In the case of Cl.N=C(N)N/N=C/c1ccc(-c2ccc(/C=N/Nc3ccccc3Cl)cc2)cc1 [Compound 7Aa], the “development of resistance” value [1] is reported as “did not develop resistance”, the MIC [13] is reported as greater than 215 µg/mL and the “development of resistance” value [2] is reported as “twelve”. The MIC [3] was greater than 215 µg/mL, the “development of drug resistance” value [14] was “did not to develop drug resistance” and the MIC [15] was greater than 215 µg/mL. The MIC [4] was 0.9 µg/mL, the “development of resistance” value [5] was “did not develop resistance” and the MIC [6] was 0.4 to 0.9 µg/mL. The MIC [18] was greater than 215 µg/mL, the MIC [7] was greater than 215 µg/mL and the “intracellular ROS production” value ([16]; 1× and 2× MIC) was “increased intracellular ROS production”. The “development of resistance” value [9] was “twelve”, the “affinity for / interaction” value [17] was “moderate (IC50 values in the range of 1-10 μM are considered to have moderate affinity)” and the MIC [19] was 0.9 µg/mL.

Compound Cl.N=C(N)N/N=C/c1ccc(-c2ccc(/C=N/Nc3ccccc3Br)cc2)cc1 [Compound 7Ab] has an MIC [7] greater than 235 µg/mL.

Cl.N=C(N)N/N=C/c1ccc(-c2ccc(/C=N/Nc3ccc(Cl)cc3)cc2)cc1 [Compound 7Ad] showed an IC50 [12] of 4.4 to 13.9 µg/mL and an MIC [7] greater than 214 µg/mL.

With Cl.N#Cc1ccc(N/N=C/c2ccc(-c3ccc(/C=N/NC(=N)N)cc3)cc2)cc1 [Compound 7Ae] the MIC [7] was 26.1 to 52.2 µg/mL.

With Cl.N=C(N)N/N=C/c1ccc(-c2ccc(/C=N/Nc3ccc(F)cc3F)cc2)cc1 [Compound 7Af] the IC50 [12] was 4.4 to 13.9 µg/mL, the MIC [7] was greater than 214 µg/mL and the “antifungal activity (class)” value [20] was “excellent (excellent (MIC = 0.5-3.9 μg/mL))”. The “affinity for / interaction” value [17] was “moderate (IC50 values in the range of 1-10 μM are considered to have moderate affinity)”.

For Cl.N=C(N)N/N=C/c1ccc(-c2ccc(/C=N/Nc3ccc(Cl)cc3Cl)cc2)cc1 [Compound 7Ag], the MIC [7] was greater than 231 µg/mL.

C/C(=N\NC(=N)N)c1ccc(-c2ccc(/C(C)=N/Nc3ccccc3Cl)cc2)cc1.Cl [Compound 8Aa] showed an MIC [15] of 213 µg/mL, an MIC [18] of 213 µg/mL and an MIC [7] of 213 µg/mL.

In the case of OO [Compound H2O2, H2O2, reference compound], the “intracellular ROS production” value ([16]; positive control at 1 mM) is reported as “induced ROS production”.

For CC1COc2c(N3CCN(C)CC3)c(F)cc3c(=O)c(C(=O)O)cn1c23 (stereo not shown) [OFX, ofloxacin, reference compound], the MIC [7] was 1.4 to 2.8 µg/mL (≈ 3.87 to 7.75 µM) and the “MIC, range over bacterial strains tested” value [8] was no more than 0.5 to 31.3 µM.
